Reference: paper PMC9157728, “Albumin Binder–Conjugated Fibroblast Activation Protein Inhibitor Radiopharmaceuticals for Cancer Therapy” (Journal of Nuclear Medicine, 2022)

Assays:
[1] = Radiotherapy study: body weight and hematoxylin and eosin staining of main organs; assay type: in vivo; settings: pancreatic cancer PDX-bearing mice after treatment
Procedure: (§1) ^68Ga-FAPI-04 PET imaging was performed to evaluate the tumor volume, and the mice were treated when their average tumor volume reached 35 mm^3. The PDX-bearing mice (6 groups, 7–9 mice per group) were treated by saline, 3.7 MBq of ^177Lu-FAPI-04, 1.85 MBq of ^177Lu-TEFAPI-06, 3.7 MBq of ^177Lu-TEFAPI-06, 1.85 MBq of ^177Lu-TEFAPI-07, or […] of ^177Lu-TEFAPI-07. Tumor volume and body weight were monitored every 2 or 3 d, and the animals were euthanized when the tumor volume exceeded 1,000 mm^3. Histopathologic staining was performed with an antihuman FAP monoclonal antibody (ab207178; Abcam), and hematoxylin and eosin staining was performed as previously described ([29]).

[2] = Ex vivo biodistribution study in PDX-bearing mice
Procedure: PDX-bearing mice were injected with 925.0 kBq of ^177Lu-TEFAPI-06 or ^177Lu-TEFAPI-07 for an ex vivo biodistribution study. The mice were killed at 24 h and 96 h after injection, the counts of the different organs were measured with a γ-counter, and the data were normalized to percentage injected dose (%ID)/g using 1% of total counts.

[3] = Stability in vitro in saline and human serum (radio-HPLC); assay type: in vitro ADME; settings: 7 d
Procedure: The radiolabeling of ^68Ga, ^86Y, and ^177Lu was performed by incubation with 50 nmol of precursor at pH 4.5–5.0 at 90°C for 10 min. The product was purified by C18 column extraction, and the radiochemical purity was determined by high-performance liquid chromatography equipped with a radioactivity detector. The stability of ^177Lu-TEFAPI-06 and ^177Lu-TEFAPI-07 in saline and human serum was monitored from 2 to 168 h using radio–high-performance liquid chromatography ([13]). More details about the radiochemistry, the quality control testing, and the stability assay can be found in the supplemental materials (section 3).

[4] = test system: pancreatic cancer PDX tumors; assay: SPECT imaging in pancreatic cancer PDX-bearing mice; assay type: in vivo; settings: for tumor uptake at 6 d after injection (SPECT imaging and biodistribution): 6 d after the injection; for tumor-to-nontargeted-tissue signal ratios on SPECT: PDX tumor models, until 144 h after injection
Procedure: SPECT scans were performed on a Mediso nanoSPECT/CT imaging system. ^177Lu-TEFAPI-06 or ^177Lu-TEFAPI-07 SPECT imaging was performed on pancreatic cancer PDX–bearing mice at the indicated time points after intravenous injection of 37 MBq of ^177Lu-TEFAPI-06 or ^177Lu-TEFAPI-07, respectively.

[5] = test system: pancreatic cancer PDX tumors; assay: Radiotherapy study in pancreatic cancer PDX-bearing mice (tumor growth); assay type: in vivo; settings: 1.85 MBq or 3.7 MBq, vs saline or 3.7 MBq ^177Lu-FAPI-04
Procedure: as §1

Blood uptake ([2]; 24 h after injection)	Bone uptake ([2]; 24 h after injection)	Brain uptake ([2]; 24 h after injection)	Fat uptake ([2]; 24 h after injection)	Heart uptake ([2]; 24 h after injection)	Kidney uptake ([2]; 24 h after injection)	Large intestine uptake ([2]; 24 h after injection)	Liver uptake ([2]; 24 h after injection)	Lung uptake ([2]; 24 h after injection)	Muscle uptake ([2]; 24 h after injection)	Pancreas uptake ([2]; 24 h after injection)	Small intestine uptake ([2]; 24 h after injection)	Spleen uptake ([2]; 24 h after injection)	Stomach uptake ([2]; 24 h after injection)	Tumor uptake ([2]; 24 h after injection)	tumor-to-liver ratio ([2]; 24 h after injection)	Blood uptake ([2]; 96 h after injection)	Bone uptake ([2]; 96 h after injection)	Fat uptake ([2]; 96 h after injection)	SMILES	side effects, hematoxylin and eosin staining of the main organs [1]	also measured
5.64 %ID/g	1.71 %ID/g	0.23 %ID/g	1.82 %ID/g	2.53 %ID/g	8.67 %ID/g	1.15 %ID/g	3.21 %ID/g	2.58 %ID/g	1.00 %ID/g	2.16 %ID/g	1.19 %ID/g	2.69 %ID/g	1.20 %ID/g	7.87 %ID/g	2.45	0.51 %ID/g	0.18 %ID/g	0.48 %ID/g	Cc1cc(-c2ccc(NC(=O)CCCC(=O)N[C@@H](CCCCNC(=O)CN3CCN(CC(=O)[O-])CCN(CC(=O)[O-])CCN(CC(=O)[O-])CC3)C(=O)N3CCN(CCCOc4ccc5nccc(C(=O)NCC(=O)N6CC(F)(F)C[C@H]6C#N)c5c4)CC3)c(C)c2)ccc1N=Nc1ccc2c(S(=O)(=O)O)cc(S(=O)(=O)O)c(N)c2c1O.[177Lu+3] [^177Lu-TEFAPI-07]	almost negligible	Heart uptake ([2]; 96 h after injection): 0.62 %ID/g; Kidney uptake ([2]; 96 h after injection): 10.16 %ID/g; Large intestine uptake ([2]; 96 h after injection): 0.10 %ID/g; Liver uptake ([2]; 96 h after injection): 2.31 %ID/g; Lung uptake ([2]; 96 h after injection): 0.73 %ID/g; Muscle uptake ([2]; 96 h after injection): 0.28 %ID/g; Pancreas uptake ([2]; 96 h after injection): 0.53 %ID/g; Small intestine uptake ([2]; 96 h after injection): 0.16 %ID/g; Spleen uptake ([2]; 96 h after injection): 1.88 %ID/g; Stomach uptake ([2]; 96 h after injection): 0.29 %ID/g; Tumor uptake ([2]; 96 h after injection): 7.57 %ID/g; tumor-to-liver ratio ([2]; 96 h after injection): 3.28; radiochemistry purity after incubation in human serum [3]: over 90%; radiochemistry purity after incubation in saline [3]: over 90%; tumor uptake at 6 d after injection (SPECT imaging and biodistribution) [4]: still notable; tumor-to-nontargeted-tissue signal ratios on SPECT [4]: high; tumor growth after treatment [5]: remarkable suppression of tumor growth
12.32 %ID/g	1.32 %ID/g	0.37 %ID/g	1.86 %ID/g	3.70 %ID/g	3.20 %ID/g	1.66 %ID/g	2.98 %ID/g	4.33 %ID/g	1.09 %ID/g	2.01 %ID/g	2.55 %ID/g	3.00 %ID/g	1.75 %ID/g	8.68 %ID/g	2.91	2.25 %ID/g	0.35 %ID/g	1.55 %ID/g	N#C[C@@H]1CC(F)(F)CN1C(=O)CNC(=O)c1ccnc2ccc(OCCCN3CCN(C(=O)[C@H](CCCCNC(=O)CN4CCN(CC(=O)[O-])CCN(CC(=O)[O-])CCN(CC(=O)[O-])CC4)NC(=O)CCCC(=O)N[C@@H](CCCCNC(=O)CCCc4ccc(I)cc4)C(=O)O)CC3)cc12.[177Lu+3] [^177Lu-TEFAPI-06]	almost negligible	Brain uptake ([2]; 96 h after injection): 0.09 %ID/g; Heart uptake ([2]; 96 h after injection): 1.51 %ID/g; Kidney uptake ([2]; 96 h after injection): 2.66 %ID/g; Large intestine uptake ([2]; 96 h after injection): 0.53 %ID/g; Liver uptake ([2]; 96 h after injection): 1.74 %ID/g; Lung uptake ([2]; 96 h after injection): 1.95 %ID/g; Muscle uptake ([2]; 96 h after injection): 0.45 %ID/g; Pancreas uptake ([2]; 96 h after injection): 0.75 %ID/g; Small intestine uptake ([2]; 96 h after injection): 0.61 %ID/g; Spleen uptake ([2]; 96 h after injection): 3.66 %ID/g; Stomach uptake ([2]; 96 h after injection): 0.54 %ID/g; Tumor uptake ([2]; 96 h after injection): 7.33 %ID/g; tumor-to-liver ratio ([2]; 96 h after injection): 4.21; radiochemistry purity after incubation in human serum [3]: over 90%; radiochemistry purity after incubation in saline [3]: over 90%; tumor uptake at 6 d after injection (SPECT imaging and biodistribution) [4]: still notable; tumor-to-nontargeted-tissue signal ratios on SPECT [4]: high; tumor growth after treatment [5]: remarkable suppression of tumor growth
